Where two headings read alike, the source gives them in different places.
How the values were obtained:
Assay in all cases: pTyr-Var library bacterial peptide display kinase screen (enrichment scores)
[1] = target: T1, c-Abl kinase domain (Mus musculus, UniProt P00520); format: biochemical;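 also: log2 fold change in enrichment of variant over reference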
T1 sequence (P00520 242-493 limits assumed): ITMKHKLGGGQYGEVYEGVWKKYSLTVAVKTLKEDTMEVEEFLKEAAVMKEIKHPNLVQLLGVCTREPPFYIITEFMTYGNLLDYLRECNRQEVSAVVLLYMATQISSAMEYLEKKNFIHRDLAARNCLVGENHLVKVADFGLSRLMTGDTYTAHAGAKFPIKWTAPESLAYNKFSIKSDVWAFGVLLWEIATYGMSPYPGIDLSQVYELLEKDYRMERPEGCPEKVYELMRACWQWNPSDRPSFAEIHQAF

[2] = target: c-Src kinase domain (Homo sapiens, UniProt P12931); format: biochemical;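 also: log2 fold change in enrichment of variant over reference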
[3] = tested on: Fer kinase domain; format: biochemical, mouse; conditions: sheet "Fer";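 also: log2 fold change in enrichment of variant over reference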
[4] = tested on: EPHB1 kinase domain; format: biochemical, human; conditions: for Screen: sheet EPHB1, effect of the variant peptide relative to its reference peptide in the pTyr-Var library screen (enrichment scores); for Screen (variant relative to reference peptide, measured in the pTyr-Var library screen): sheet "EPHB1", variant seq vs reference seq, bacterial peptide display enrichment
[5] = fig5-data2, sheet "Abl", Screen for the variant/reference peptide pair, pTyr-Var library
[6] = sheet "Src", effect of the variant peptide relative to its reference peptide in the pTyr-Var library screen
[7] = sheet "Abl", effect of variant peptide relative to its reference peptide in pTyr-Var library screen (enrichment)
[8] = sheet "Src", variant peptide versus its reference peptide in the pTyr-Var library screen
[9] = variant peptide relative to its reference peptide, pTyr-Var library screen enrichment
[10] = value of the variant peptide against its reference peptide in the pTyr-Var library screen with Fer

AALSAYAPQRP [PTPRN2_Y249_A251P]
Screen [1, 5]: -0.5816

AATTAYSKPKQ [MAP3K7_Y405_R410Q]
Screen [1, 5]: -0.9283

ACLSLYGGFVE [MVD_Y164_R161L]
Screen [2, 6]: -0.5782

ADLVQYFMEHH [PTPN11_Y80_E76D_YF]
Screen [1, 5]: 0.02377

ADRNHYRRFRR [YBX1_Y145_P149R_YF]
Screen [1, 7]: -2.647

AEFGLYRAMVR [VSX2_Y222_G223R_YF]
Screen [2, 8]: -2.091
Screen [1, 7]: 2.423

AGIVVYNIIGW [MYH7_Y588_D587V]
Screen [2, 8]: 2.236

AKAFIYASHIV [ZNF573_Y229_G224A]
Screen ([2]; sheet "Src", effect of the variant peptide against its reference peptide, seen in the pTyr-Var library screen): 0.3183
Screen [3, 9]: 0.4356

AMGPVYQAAAL [HYOU1_Y421_A419P]
Screen [2, 6]: 0.5389
Screen [3, 10]: 1.97

AQMAMYFWEMS [TRPM4_Y577_G582S]
Screen [2, 8]: -0.06271

CSRCFYQLTKL [AR_Y858_R856C]
Screen [3, 10]: 1.959

CTHDLYMFMRE [FGFR3_Y724_I726F]
Screen [2, 6]: 0.09652
Screen [4]: 0.1536

DAAEDYAEGVC [DHODH_Y194_R199C]
Screen [1, 5]: -0.7613

DCLASYLDKVR [KRT16_Y131_R127C]
Screen [1, 5]: 1.893

DDSNPYINVKL [MTHFD1_Y52_L51P]
Screen [1, 5]: -0.8391

DENWFYTQAAS [RPS19_Y54_R56Q]
Screen [1, 5]: 0.05995

DFPGIYSGFDD [POLR1C_Y33_N32I_YF]
Screen [2, 8]: 3.694

DHPSEYAARQL [ANXA13_Y90_R86H]
Screen [1, 5]: 0.8208

DLQDEYDFKRK [STAT1_Y170_C174R]
Screen [1, 7]: -1.312

DPLLTYQFPPK [LMNA_Y481_R482Q]
Screen [2, 6]: 1.304

EFSNQYKATIG [RAB7A_Y37_K32E]
Screen [1, 5]: 1.976

ELQGTYTSLQQ [KIF3C_Y574_R571Q]
Screen [2, 6]: 1.278

ETEMLYGSARR [PRC1_Y464_P468R]
Screen [2, 8]: -0.8951
Screen [3, 10]: -2.34

FDKPVYQKTTE [LDLR_Y828_N825K]
Screen [1, 5]: 0.7779

FEPWVYSLSFE [PRKDC_Y647_F649L_YF]
Screen [2, 8]: 0.05044
Screen [1, 5]: -0.5163

FIGVTYKNKED [PDGFRA_Y993_E996K_YF]
Screen [1, 5]: -0.7207

FKEDPYLVVNP [MCM6_Y810_E806K_YF]
Screen [2, 6]: -0.4166
Screen [1, 5]: -1.709

FKEVVYQAMEE [TACC3_Y684_E680K]
Screen [2, 8]: -0.2069

FLTQHYDAIPQ [ANG_Y38_K41I]
Screen [3, 10]: 3.881

FQKNVYSEELR [LMNA_Y211_I210V]
Screen [2, 6]: -1.452

FRAVKYLQMVG [AVPR2_Y117_C112Y_YF]
Screen [1, 5]: 1.48

FRDALYKSMVD [PHEX_Y250_F252S_YF]
Screen [1, 5]: 1.216

FRQNGYIPGSN [PCDHGB2_Y895_V894G_YF]
Screen [1, 5]: -0.7593

FSMGCYEFSLG [HMGCL_Y198_I200F_YF]
Screen [2, 6]: -0.3724
Screen [1, 5]: 1.5
Screen [3, 10]: 0.8119

FSQQTYFPVSN [ABCD1_Y180_R182P_YF]
Screen [2]: 1.076

FVPSNYVAEDR [FRK_Y104_I100V_YF]
Screen [1, 5]: 0.1639

GENTVYAQVFN [LY9_Y603_M602V]
Screen [2, 6]: 1.086
Screen [3, 10]: 0.3094
Screen [4]: 0.06415

GFEEAYSVSKK [PAFAH1B1_Y28_F31S_YF]
Screen [2, 8]: -2.622

GFFDLYGGEKF [PTPN11_Y66_D61G_YF]
Screen [2, 8]: -0.05122

GFGGGYGGVLT [KRT19_Y65_A60G_YF]
Screen [1, 5]: -0.6696

GSSKIYFLHAD [TLR5_Y108_P112A]
Screen [2, 8]: -1.042

HGAKVYIDPFT [EPHB4_Y590_T587A]
Screen [1, 5]: 1.249

HITQVYGFFDE [PPP2CA_Y127_Q122H_YF]
Screen [2, 8]: 0.5425

HLGNQYVNVMN [SLC3A1_Y461_R456H]
Screen (variant relative to reference peptide, measured in the pTyr-Var library screen) [4]: -0.5071

HLLRIYFDITD [MMP27_Y307_W304L_YF]
Screen [4]: 0.4409

IATTIYSGDKI [UGGT2_Y823_A821T]
Screen [2, 8]: -1.846

ICFSDYVEVAD [PHACTR1_Y525_R521C]
Screen [1, 5]: 1.249
Screen [4]: 0.304

ICGVSYDEFRF [CFTR_Y512_F508C_YF]
Screen [2, 6]: -0.6525
Screen [3, 10]: -0.3864

IGVDSYSVCKR [RPS6KA3_Y433_G431D]
Screen [1, 5]: 0.006002

INITIYGKTFH [EFHC1_Y177_R182H]
Screen [1, 5]: 2.247

ISNATYKQIGL [FLT1_Y199_E201Q]
Screen [1, 5]: -0.6358

IVRSPYEDLED [VHL_Y185_L184P]
Screen [1, 7]: 0.8994

KDQGIYEDFVE [MYL6_Y86_T85I_YF]
Screen [2, 8]: 1.232
Screen [3, 10]: 1.02

KGSLPYSLILD [PKD1L2_Y406_N407S]
Screen [2, 8]: 1.59

KKHIPYRQHKS [CSNK1G2_Y206_E208Q]
Screen [3, 10]: 0.3167
Screen [4]: 0.2176

KNNSIYVLANI [VNN1_Y134_V136L]
Screen [1, 7]: -3.297
Screen [3, 9]: 1.88

KRAAIYNPVIF [RHO_Y301_S297R_YF]
Screen [2, 8]: -1.114
Screen [3, 9]: -0.6585

KVPAIYGVGTR [CPS1_Y162_D165G]
Screen [2, 6]: 1.669

LKRCQYVTKKV [ALDOA_Y204_E207K]
Screen [4]: -1.465

LLASGYDSPIN [ABLIM1_Y638_R637G]
Screen [4]: -0.7648

LLSVAYKNVVR [YWHAZ_Y48_G53R]
Screen [1, 7]: 1.295

LLTKVYVVEGS [ZMPSTE24_Y253_P248L]
Screen [1, 7]: -5.536

LQKNIYSEELR [LMNA_Y211_F206L]
Screen [2, 6]: -1.475
Screen [4]: 0.6923

LREKVYVSLEA [RXRA_Y397_A398V]
Screen [2, 8]: -2.342

LVLIKYLPEWT [PSEN1_Y240_F237L]
Screen [1, 5]: 1.753

MFNPCYGLFEF [NEDD4L_Y680_Y679C_YF]
Screen [2, 8]: -0.1736
Screen [3, 10]: -0.1579

MKKMHYVDPDR [ST3GAL5_Y99_H104R]
Screen [1, 7]: -0.8054

MLEAPYVDRNS [F10_Y384_V382A]
Screen [1, 5]: 1.1

MNKNAYHNVTT [ST3GAL6_Y306_A311T]
Screen [1, 7]: -0.8996

NAGAFYVLSTL [FLVCR2_Y325_A326V]
Screen [3, 10]: -2.63

NPQKSYFICLF [WAS_Y83_R86C_YF]
Screen [1, 7]: 3.12

PAIFTYDEFKK [COL8A2_Y648_T645I_YF]
Screen [2, 6]: 0.8342
Screen [3, 10]: -2.501

PKDSAYVTWEP [TTN_Y20731_S20726P]
Screen [2, 8]: 0.3327
Screen [3, 9]: 0.6125

PQAVTYAEVKH [LILRB4_Y360_K362E]
Screen [2, 6]: 2.83
Screen [4]: 2.401

PSPTKYSLSPS [RANBP2_Y785_R784K]
Screen [1, 5]: 1.871

PVGVLYEVKVF [PTS_Y128_K129E_YF]
Screen [3, 9]: 1.639
Screen [4]: 0.4109

QAIDEYEKWLE [MAP9_Y603_N601D]
Screen [4]: -0.2835

QDRTFYERVRT [SPEN_Y633_S635R_YF]
Screen [3, 9]: -1.346

QMIETYFDFRV [NSMF_Y506_L511V]
Screen [2, 8]: -0.8869
Screen [4]: -0.6862

QRASDYFSQQM [GBP6_Y333_A331S_YF]
Screen [4]: 1.684

QRRNVYFFSFL [PTEN_Y176_Y174N_YF]
Screen [3, 10]: -1.418

QTEAPYRFIFM [PTPN11_Y511_Q510P_YF]
Screen [3, 10]: 2.526

QTSSNYDDAMQ [ZNF281_Y531_I527T]
Screen [1, 7]: -4.858

RDLHTYIMPAH [PNMT_Y256_R254H]
Screen [4]: -2.793

RILENYGADID [DNAH5_Y596_L591R]
Screen [1, 5]: -0.1652

RKLVDYDSAQH [BIN1_Y150_R154Q]
Screen [1, 5]: -0.7012

RLAKRYLIWEC [SCN5A_Y694_Q692K]
Screen [1, 7]: -1.185

RSSGSYGGGGQ [HNRNPA1_Y341_P340S]
Screen [4]: 0.1057

SEKISYVFMKR [SSX7_Y48_L43S_YF]
Screen (variant relative to reference peptide, measured in the pTyr-Var library screen) [4]: -1.247

SGEKPYKCSVC [ZNF543_Y283_E287V]
Screen [1, 7]: 3.958

SGSFRYGSSFE [SELE_Y390_C394F]
Screen [1, 7]: -0.02524

SKHHLYSDLQT [PTCHD1_Y84_R82H]
Screen [3, 10]: 1.431

SSFDTYHLSRE [KIR3DL2_Y253_I252T_YF]
Screen [2, 6]: -1.121

SSSNPYSTVTV [ACTN2_Y599_M604V]
Screen [2, 6]: -0.5875
Screen [3, 10]: -0.1641

SSTAMYSAAGR [PSMB1_Y8_P11A]
Screen [1, 5]: -0.5664

TDTQLYGRFGS [ITGA2B_Y384_G380D]
Screen [2, 6]: -0.04787

TQPSPYAVFLF [RPGRIP1_Y823_R827L_YF]
Screen [2, 8]: -0.4188
Screen [3, 9]: -0.3535
Screen [4]: -0.3084

TRDVNYGWIIH [MT-CYB_Y75_R80H]
Screen [3, 10]: 3.39

TTPFNYSFIFK [RAB14_Y8_A4T_YF]
Screen [4]: 0.03762

TVHPGYGFLSE [PCCA_Y143_A138T]
Screen [1, 5]: 1.846

VDEVLYEDSSA [MTHFS_Y197_T202A]
Screen [3, 10]: -0.2341

VFGVSYDEFRF [CFTR_Y512_I507V_YF]
Screen [2, 6]: 0.2836
Screen [3, 10]: 0.375

VIIVLYFSLWK [SLC6A2_Y249_V245I]
Screen [1, 7]: -0.9059

VKMLPYTEVTR [GDI1_Y93_L92P]
Screen [4]: -2.754

VQVAFYTVMMN [SPATA17_Y84_M86V_YF]
Screen [3, 9]: -1.379

VVKTVYSLQPS [KNSTRN_Y87_P92S]
Screen [2, 6]: -0.2694

VVSLFYGTALF [OR10C1_Y251_M246V]
Screen [2, 8]: -0.3109
